Laboratory results published in PMC7530896 (Journal of the American Chemical Society, 2020).

Tests used:
[1] = molecular target: T1, purified recombinant human UCHL1 (Homo sapiens, UniProt P09936); test: Probe labeling of purified recombinant UCHL1; assay type: binding; conditions: small-molecule probes: nondenaturing SDS-PAGE (no boiling, no β-mercaptoethanol)
T1 sequence (P09936 1-223): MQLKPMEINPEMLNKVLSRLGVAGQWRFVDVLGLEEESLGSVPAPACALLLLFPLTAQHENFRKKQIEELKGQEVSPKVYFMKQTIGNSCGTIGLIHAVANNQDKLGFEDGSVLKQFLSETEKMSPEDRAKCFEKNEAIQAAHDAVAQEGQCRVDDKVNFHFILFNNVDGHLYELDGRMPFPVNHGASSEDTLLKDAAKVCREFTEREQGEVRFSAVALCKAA

PARK7 = test: Morpholino injections in zebrafish embryos, heart phenotype; assay type: in vivo, zebrafish (Danio rerio); conditions: 2 dpf zebrafish embryos
UCHL1 = test: Morpholino injections in zebrafish embryos, tail phenotype; assay type: in vivo, zebrafish (Danio rerio); conditions: 2 dpf zebrafish embryos, 2 ng morpholino

rhodamine-ubiquitin-propargylamide [Rh-Ub-PA]
labeling of purified recombinant human UCHL1 [1]: nearly all UCHL1 is labeled

PARK7MO1: morpholino targeting PARK7 exon 2, 5′-TATGTAAAGTCAGACCTGTTTGTG-3′ (all phosphorodiamidate morpholino (PMO))
abnormal enlarged heart phenotype (PARK7): ~18%

UCHL1MO2: morpholino targeting UCHL1 exon 4, 5′-GTTCCTTAAACATATCCACTTACCA-3′ (all phosphorodiamidate morpholino (PMO))
Tail phenotype % curly tail (UCHL1): 79%

UCHL1MO1: morpholino targeting UCHL1, 5′-TATTTCCATCGGTTTCCACTCCATG-3′ (all phosphorodiamidate morpholino (PMO))
Tail phenotype % curly tail (UCHL1): 53%
